Measurements: the supplement of paper PMC10307832

Tests used:
Assay in all cases: relative viability (nuclei count vs DMSO), 5 days (fraction); higher = more cells survive
[1] = compound: COC1=CC=C(C=C1)CN2C=CC3=C2C=C(C=C3)C(=O)NO + N=C(N)NC(=N)NCCc1ccccc1 [Phenformin] (partner 250 µM)
In short: (§1)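 Relative viability was taken as the ratio of nuclei in treated wells to nuclei in vehicle wells. Lung cancer cell lines in 1536-well plates received compounds by pin tool one day after seeding, either one drug alone or a fixed anchor-drug dose plus five library-drug doses (not always all listed) in √10 steps. Nuclei were counted on 4× images after 5 days of treatment, and values are medians of duplicate plates.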

Veliparib + Lapatinib = compound: C[C@]1(c2nc3c(C(N)=O)cccc3[nH]2)CCCN1 [Veliparib] + CS(=O)(=O)CCNCc1ccc(-c2ccc3ncnc(Nc4ccc(OCc5cccc(F)c5)c(Cl)c4)c3c2)o1 [Lapatinib] (partner 2 µM)
In short: as §1

[2] = compound: COC1=CC=C(C=C1)CN2C=CC3=C2C=C(C=C3)C(=O)NO + O=C(CCCCCCC(=O)Nc1ccccc1)NO [Vorinostat] (partner 1 µM)
In short: as §1

Veliparib + Vorinostat = compound: C[C@]1(c2nc3c(C(N)=O)cccc3[nH]2)CCCN1 [Veliparib] + O=C(CCCCCCC(=O)Nc1ccccc1)NO [Vorinostat] (partner 1 µM)
In short: as §1

Row | Cell Line | relative viability ([1]; first compound 0.08 µM) | relative viability ([1]; first compound 0.253 µM) | relative viability ([1]; first compound 0.8 µM) | relative viability ([1]; first compound 2.53 µM) | relative viability ([1]; first compound 8 µM) | relative viability (Veliparib + Lapatinib; first compound 0.02 µM) | relative viability (Veliparib + Lapatinib; first compound 0.06325 µM) | relative viability (Veliparib + Lapatinib; first compound 0.2 µM) | relative viability (Veliparib + Lapatinib; first compound 0.6325 µM) | relative viability (Veliparib + Lapatinib; first compound 2 µM) | relative viability ([2]; first compound 0.08 µM) | relative viability ([2]; first compound 0.253 µM) | relative viability ([2]; first compound 0.8 µM) | relative viability ([2]; first compound 2.53 µM) | relative viability ([2]; first compound 8 µM) | relative viability (Veliparib + Vorinostat; first compound 0.02 µM) | relative viability (Veliparib + Vorinostat; first compound 0.06325 µM) | relative viability (Veliparib + Vorinostat; first compound 0.2 µM) | relative viability (Veliparib + Vorinostat; first compound 0.6325 µM) | relative viability (Veliparib + Vorinostat; first compound 2 µM)
1 | NCI-H23 | 0.699 | 0.843 | 0.852 | 0.712 | 0.653 | 1.19 | 0.995 | 0.84 | 0.873 | 1.01 | 0.338 | 0.649 | 0.637 | 0.584 | 0.461 | 0.633 | 0.45 | 0.544 | 0.543 | 0.56
2 | Calu-6 |  |  |  |  |  | 1.14 | 0.985 | 0.96 | 0.971 | 0.989 |  |  |  |  |  |  |  |  |  | 
3 | NCI-H1623 | 0.396 | 0.581 | 0.542 | 0.616 | 0.513 |  |  |  |  |  |  |  |  |  |  |  |  |  |  | 
4 | LC-2-ad | 0.493 | 0.577 | 0.561 | 0.588 | 0.479 |  | 0.813 | 0.967 | 0.94 | 0.951 | 0.58 | 0.742 | 0.748 | 0.701 | 0.592 | 0.434 | 0.656 | 0.717 | 0.655 | 0.788
5 | HARA |  | 0.455 | 0.511 | 0.43 | 0.317 | 0.748 | 0.57 | 0.86 | 0.743 | 0.853 |  | 0.6 | 0.484 | 0.677 | 0.59 |  | 0.492 | 0.521 | 0.529 | 0.565
6 | NCI-H1993 | 0.512 | 0.571 | 0.445 | 0.477 | 0.457 | 0.794 | 0.759 | 0.823 | 0.851 | 0.85 | 0.527 | 1.21 | 0.901 | 0.842 | 0.73 |  | 0.775 | 0.966 | 0.804 | 0.688
7 | SK-MES-1 | 0.661 | 0.651 | 0.632 | 0.686 | 0.644 | 0.5 | 0.413 | 0.438 | 0.473 | 0.473 | 1.04 | 1.14 | 1.04 | 1.08 | 1.05 | 1.19 | 1.08 | 1.09 | 1.04 | 1.07
8 | NCI-H2023 | 0.38 | 0.409 | 0.383 | 0.392 | 0.299 | 0.428 | 0.759 | 0.743 | 0.745 | 0.862 | 0.256 | 0.631 | 0.619 | 0.647 | 0.654 |  | 0.536 | 0.581 | 0.472 | 0.48
9 | EMC-BAC-2 | 0.367 | 0.543 | 0.422 | 0.526 | 0.449 | 0.863 | 0.85 | 0.867 | 0.86 | 0.884 | 0.257 |  | 0.568 | 0.429 | 0.36 | 0.606 |  | 0.646 | 0.638 | 0.493
10 | H3255 | 0.334 | 0.39 | 0.347 | 0.353 | 0.359 | 0.227 | 0.209 | 0.27 | 0.289 | 0.261 | 0.34 | 0.739 | 0.842 | 0.849 | 0.731 | 0.707 | 0.768 | 0.793 | 0.799 | 0.936
11 | SK-LU-1 | 0.551 | 0.566 | 0.596 | 0.604 | 0.469 | 0.868 | 0.835 | 0.966 | 0.823 | 1.02 | 0.527 | 0.753 | 0.771 | 0.718 | 0.691 | 0.946 | 0.837 | 0.906 | 0.722 | 0.754
12 | BEN | 0.267 | 0.224 | 0.263 | 0.269 | 0.259 | 0.445 | 0.72 | 0.777 | 0.824 | 0.81 | 0.566 | 0.566 | 0.591 | 0.543 | 0.548 | 0.544 | 0.615 | 0.62 | 0.614 | 0.593
13 | NCI-H727 | 0.603 | 0.475 | 0.517 | 0.534 | 0.415 | 0.388 | 0.759 | 0.9 | 0.876 | 0.734 | 1.13 | 1.17 | 1.22 | 1.25 | 1.25 | 1.11 | 0.948 | 1.1 | 1.14 | 1.04
14 | NCI-H1755 | 0.595 | 0.678 | 0.636 | 0.637 | 0.61 | 1.02 | 1 | 1.01 | 0.99 | 0.989 | 0.694 | 0.884 | 0.777 | 0.876 | 0.725 | 0.758 | 0.774 | 0.725 | 0.723 | 0.714
15 | NCI-H1944 |  | 0.234 | 0.195 | 0.188 | 0.165 | 0.825 | 0.748 | 0.627 | 0.72 | 0.767 |  | 0.677 | 0.577 | 0.603 | 0.399 | 0.491 | 0.498 | 0.388 | 0.44 | 0.459
16 | NCI-H322M |  | 0.821 | 0.762 | 0.737 | 0.763 | 0.722 | 0.602 | 0.629 | 0.61 | 0.471 |  |  | 0.866 | 0.888 | 0.845 |  | 0.873 | 0.899 | 0.976 | 0.717
17 | NCI-H647 | 0.371 | 0.525 | 0.443 | 0.474 | 0.404 | 1.24 | 0.986 | 0.973 | 1 | 1.16 | 0.457 | 0.738 | 0.802 | 0.702 | 0.515 | 0.584 | 0.606 | 0.385 | 0.366 | 0.427
18 | LXF-289 |  | 0.554 | 0.517 | 0.512 | 0.508 | 0.903 | 0.878 | 0.897 | 0.904 | 0.928 |  | 0.815 | 0.813 | 0.797 | 0.668 | 0.809 | 0.812 | 0.743 | 0.655 | 0.794
